# Patent US7060714B2, “Fungal strain acremonium sp.MT70646(KCTC 0916BP), novel compounds produced by this strain and their use” (Korea Research Institute of Bioscience and Biotechnology, priority 1999, dated 2006)
# How the values were obtained:
# heparinase = biological target: T1, heparinase (Pedobacter heparinus, UniProt Q05819); assay: Inhibition of heparinase (heparin / antithrombin III / factor Xa chromogenic assay); assay type: biochemical, Flavobacterium heparinum
# T1 construct: the heparinase was isolated from Flavobacterium heparinum; purchased Sigma Co. Ltd. (U.S.A.); host or cells: isolated from Flavobacterium heparinum
# T1 sequence (Q05819 22-384): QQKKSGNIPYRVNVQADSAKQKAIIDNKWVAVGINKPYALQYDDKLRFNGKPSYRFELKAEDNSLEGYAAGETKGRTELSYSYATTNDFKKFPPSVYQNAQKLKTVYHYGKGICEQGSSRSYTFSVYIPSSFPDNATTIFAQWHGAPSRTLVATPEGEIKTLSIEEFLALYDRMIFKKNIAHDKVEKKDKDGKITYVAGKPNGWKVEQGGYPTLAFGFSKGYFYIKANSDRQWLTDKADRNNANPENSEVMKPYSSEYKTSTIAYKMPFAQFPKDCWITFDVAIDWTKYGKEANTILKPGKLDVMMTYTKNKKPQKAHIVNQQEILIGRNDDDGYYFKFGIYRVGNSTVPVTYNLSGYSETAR
# Protocol: To 17 μL of reaction buffer (14 mM sodium acetate and 1.4 mM CaCl2, pH 7.0) containing 10 ng of heparin were added 3 μL of test sample along with 0.2 unit of heparinase and placed at room temperature for 15 min. Then, 25 μL of antithrombin III solution was added and allowed to react for 2 min at room temperature and added with 25 μL of factor Xa solution. In one minute, 25 μL of factor Xa substrate was added to react for 5–10 min and then terminated the reaction by adding 25 μL of glacial acetic acid. The light absorbency was measured at 410 nm. The rate of enzyme inhibition was calculated as in the following equation 1, wherein IC50 was the concentration of the inhibitor when the rate of enzyme inhibition reached 50%. Inhibition (%)=(A−C)/(A−B)×100 [Equation 1]
# In the above equation 1, A represents the light absorbance of the reagent after reaction when the inhibitor was not added, B represents the light absorbance of the reagent after reaction when enzyme solution was not added, and C represents the light absorbance of the reagent after reaction when the inhibitor was added.
# The heparinase used in this experiment was purchased from Sigma Co. Ltd. (U.S.A.), wherein the heparinase was isolated from Flavobacterium heparinum.
# B16 melanoma cells = assay: Invasion of B16 melanoma cells (Matrigel invasion); assay type: cell-based; conditions: for Relative Rate of Invasion (%): control 100; for No. of Cells Invaded: control 420.7 ± 15.6
# Protocol: MT70646 (KCTC 0916BP) against the invasion of B16 melanoma cells through the synthetic basal membranes. […]
# BioCoat invasion chamber (precoated Matrigel) was swelled for 30 min by serum-free DMEM and the chamber was placed into the well of 24 well plate which contains 600 μL of HT 1080 conditioned medium. And then 450 μL of melanoma cell suspension (4.5×10^3 cells) in DMEM medium containing 0.5% albumin was added into the chamber. After adding 50 μL of test sample, the chamber was incubated for 22–24 hr at 37° C. in a 5% CO2 atmosphere. And the filter of chamber was detached and fixed with methanol. After staining the filter with 5% crystal violet and the cells on the upper surface of the filters were removed by wiping them with a cotton swab. The cells invaded through the Matrigel and filter to the lower surface were counted under a microscope.
# [1] = system: human umbilical vein enothelial cell (HUVEC); assay: Angiogenesis: HUVEC tube formation on Matrigel; assay type: cell-based; conditions: 18 hr, read-out: Inhibitory activity against the angiogenesis (tube formation); for inhibition at 1 µg/mL: 1 μg/mL; for inhibition at 3 µg/mL: 3 μg/mL; for inhibition at 10 µg/mL: 10 μg/mL
# Protocol: After thawing Matrigel on ice, 40 μL of the Matrigel was added into each wells of a 96 well plate and placed for 30 min at 37° C. to solidify the Matrigel. Then, 180 μL of human umbilical vein enothelial cell (HUVEC) suspension (2×10^4 cells) was added made into each well of the solidified Matrigel and incubated for 18 hr in a 5% CO2 atmosphere at 37° C. The degree of tube formation was observed by microscope.
# Solubility in solvents = assay type: physicochemical
# From the text: The results of infrared (IR) absorption spectrum; ^1H-NMR and ^13C-NMR spectrum; and HMBC NMR spectrum analyses are shown in the Tables 2 & 3 and FIGS. 1–3.
# [2] = biological target: T2, heparanase derived from human platelets (Homo sapiens, UniProt Q9Y251); assay: Inhibition of heparanase (3H-heparan sulfate degradation); assay type: biochemical; conditions: 10 ng heparanase, 30 min at 37° C., pH 5.1; read-out: IC50 against heparanase
# T2 construct: 10 ng of heparanase derived from human platelets; from tissue; host or cells: human platelets
# T2 sequence (Q9Y251 158-543 limits assumed): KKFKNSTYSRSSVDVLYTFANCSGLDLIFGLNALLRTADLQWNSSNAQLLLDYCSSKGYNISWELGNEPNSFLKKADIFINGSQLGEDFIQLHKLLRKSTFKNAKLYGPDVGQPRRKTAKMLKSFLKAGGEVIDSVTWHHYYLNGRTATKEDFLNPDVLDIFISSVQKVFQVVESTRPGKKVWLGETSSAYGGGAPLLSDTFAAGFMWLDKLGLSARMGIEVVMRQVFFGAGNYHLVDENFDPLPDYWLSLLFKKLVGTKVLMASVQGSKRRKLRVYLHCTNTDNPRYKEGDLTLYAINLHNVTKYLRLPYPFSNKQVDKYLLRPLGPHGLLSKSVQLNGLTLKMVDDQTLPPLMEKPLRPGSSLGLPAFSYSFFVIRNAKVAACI
# T2 sequence (Q9Y251 36-109 limits assumed): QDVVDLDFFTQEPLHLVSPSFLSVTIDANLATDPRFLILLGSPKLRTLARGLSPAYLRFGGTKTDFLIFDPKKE
# From the text: After the reaction, the reaction mixture was passed through a column filled with HRG-Sepharose beads and eluted out the degraded heparan sulfate by heparanase to measure the radioactivity.
compound,measurement,setting,value
"CCCCCCCCCCCCCCCc1cc(OC2OC(C(=O)OC)C(O)C(O)C2O)cc(O)c1C(=O)Oc1cc(C)c(C(=O)O)c(O)c1 (single isomer, unassigned) [CRM646-B]",IC50,heparinase,25 µM
same,Relative Rate of Invasion (%),B16 melanoma cells; 1 μg/mL,89.5%
same,No. of Cells Invaded,B16 melanoma cells; 1 μg/mL,376.7 ± 19.7
same,Relative Rate of Invasion (%),B16 melanoma cells; 3 μg/mL,36.9%
same,No. of Cells Invaded,B16 melanoma cells; 3 μg/mL,155.3 ± 18.6
same,Relative Rate of Invasion (%),B16 melanoma cells; 10 μg/mL,13.3%
same,No. of Cells Invaded,B16 melanoma cells; 10 μg/mL,56.0 ± 8.9
same,inhibition at 10 µg/mL,"B16 melanoma cells; Mus musculus, B16, 10 μg/mL, read-out: Inhibitory activity against invasion",> 80%
same,IC50,"B16 melanoma cells; Mus musculus, B16, estimated from Table 4, read-out: IC50 against invasion of B16 melanoma cells",~2 µg/mL
same,inhibition at 1 µg/mL,[1],< 30%
same,inhibition at 3 µg/mL,[1],30%
same,inhibition at 10 µg/mL,[1],60%
same,Physicochemical properties (comparison),Solubility in solvents,almost same as in the compound CRM646-A
CCCCCCCCCCCCCCCc1cc(OC2OC(C(=O)O)C(O)C(O)C2O)cc(O)c1C(=O)Oc1cc(C)c(C(=O)O)c(O)c1 (centres unmarked) [CRM646-A],IC50,heparinase,3 µM
same,IC50,[2],10 µM
same,Relative Rate of Invasion (%),B16 melanoma cells; 1 μg/mL,100.1%
same,No. of Cells Invaded,B16 melanoma cells; 1 μg/mL,421.0 ± 15.6
same,Relative Rate of Invasion (%),B16 melanoma cells; 3 μg/mL,91.4%
same,No. of Cells Invaded,B16 melanoma cells; 3 μg/mL,384.4 ± 9.4
same,Relative Rate of Invasion (%),B16 melanoma cells; 10 μg/mL,71.5%
same,No. of Cells Invaded,B16 melanoma cells; 10 μg/mL,300.8 ± 10.2
same,inhibition at 1 µg/mL,[1],< 30%
same,inhibition at 3 µg/mL,[1],< 30%
same,inhibition at 10 µg/mL,[1],30%
same,"Solubility in ethanol, butanol, dimethyl sulfoxide (DMSO)",Solubility in solvents,well dissolved
same,"Solubility in water, hexane and chloroform",Solubility in solvents,not dissolved easily
